The results in this text go back to PubChem BioAssay AID328 (DTP/NCI, 2004).

The structures appear in SMILES notation. Where “and” joins values, the source holds several entries; their conditions need not be identical. Equal values may be shown once. Toxic doses and inconclusive results are not listed.

The assay has as its system BDF1 mice, P388 leukemia ip, median survival T/C. As to the kind of experiment: NCI In Vivo Anticancer Drug Screen. Data for tumor model P388 Leukemia (intraperitoneal) in B6D2F1 (BDF1) mice. The note with it: endpoint: median survival time, higher = longer survival. The method, boiled down:
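Steps: implant the tumour, treat one group with compound and another with vehicle, record survival, then divide treated by control.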

Setting [1] is: dose: 100.0 mg/kg/injection, schedule: Q04DX003 (ip), vehicle: saline with Tween-80.
The mark [2] stands for this setting: dose: 200.0 mg/kg/injection, schedule: Q04DX003 (ip), vehicle: saline with Tween-80.
Setting [3] is: dose: 400.0 mg/kg/injection, schedule: Q04DX003 (ip), vehicle: saline with Tween-80.
[4] abbreviates: dose: 12.5 mg/kg/injection, schedule: Q04DX003 (ip), vehicle: saline.
Setting [5] is: dose: 100.0 mg/kg/injection, schedule: Q01DX009 (ip), vehicle: saline with Tween-80.
Where [6] appears, read: dose: 200.0 mg/kg/injection, schedule: Q01DX009 (ip), vehicle: saline with Tween-80.
Where [7] appears, read: dose: 400.0 mg/kg/injection, schedule: Q01DX009 (ip), vehicle: saline with Tween-80.
Setting [8] is: dose: 25.0 mg/kg/injection, schedule: Q01DX009 (ip), vehicle: saline with Tween-80.
The mark [9] stands for this setting: dose: 100.0 mg/kg/injection, schedule: Q04DX003 (ip), vehicle: Klucel (hydroxypropylcellulose) (HPC).
[10] abbreviates: dose: 400.0 mg/kg/injection, schedule: Q04DX003 (ip), vehicle: Klucel (hydroxypropylcellulose) (HPC).

For `Cc1ccc(CNc2ccc(F)cc2)cc1`, the T/C (dose: 100.0 mg/kg/injection, schedule: Q01DX009 (ip), vehicle: other) was 100 % of control; the T/C under setting [1] is 95 % of control; the T/C (dose: 178.0 mg/kg/injection, schedule: Q01DX009 (ip), vehicle: other) is 100 % of control; the T/C (dose: 200.0 mg/kg/injection, schedule: Q01DX009 (ip), vehicle: other) was 95 % of control; the T/C under setting [2] is 104 % of control; the T/C (dose: 266.0 mg/kg/injection, schedule: Q01DX009 (ip), vehicle: other) is 109 % of control. Also, the T/C is 104 % of control (dose: 400.0 mg/kg/injection, schedule: Q01DX009 (ip), vehicle: other) and 100 % of control under setting [3].
On to `COc1cc(N2C(N)=NC(N)=NC2(C)C)cc(OC)c1OC`, for which the T/C (dose: 6.25 mg/kg/injection, schedule: Q04DX003 (ip), vehicle: saline) was 100 % of control; the T/C under setting [4] was 115 % of control; the T/C (dose: 25.0 mg/kg/injection, schedule: Q04DX003 (ip), vehicle: saline) was 100 % of control.
With `Cc1ccc(N2C(=O)CC(Sc3ccccc3N)C2=O)cc1Cl` (centres undefined), the T/C was 110 % of control under setting [5]; 95 % of control under setting [1]; 90 % of control under setting [6]; 109 % of control under setting [2]; 105 % of control under setting [7]; 109 % of control under setting [3].
As to `O=C(/C=C/c1ccc(F)cc1)c1ccc(Cl)cc1`, the T/C runs as follows: under setting [5], 90 % of control; under setting [6], 90 % of control; under setting [7], 100 % of control.
As for `CC(O)(C(N)=O)c1cc(Cl)ccc1Cl` (centres undefined), the T/C (dose: 100.0 mg/kg/injection, schedule: Q01DX009 (ip), vehicle: water) is 110 % of control; the T/C (dose: 100.0 mg/kg/injection, schedule: Q04DX003 (ip), vehicle: water) was 109 % of control; the T/C (dose: 200.0 mg/kg/injection, schedule: Q01DX009 (ip), vehicle: water) was 110 % of control; the T/C (dose: 200.0 mg/kg/injection, schedule: Q04DX003 (ip), vehicle: water) is 100 % of control; the T/C (dose: 400.0 mg/kg/injection, schedule: Q01DX009 (ip), vehicle: water) is 90 % of control; the T/C (dose: 400.0 mg/kg/injection, schedule: Q04DX003 (ip), vehicle: water) was 95 % of control.
`Cc1ccc(NC(=O)C(C)(C)C)c(C(O)(C(F)(F)F)C(F)(F)F)c1`: the T/C runs as follows: (dose: 100.0 mg/kg/injection, schedule: Q01DX001 (ip), vehicle: saline with Tween-80) 99 % of control; (dose: 200.0 mg/kg/injection, schedule: Q01DX001 (ip), vehicle: saline with Tween-80) 106 % of control; (dose: 400.0 mg/kg/injection, schedule: Q01DX001 (ip), vehicle: saline with Tween-80) 99 % of control.
Take `O=P(N1CCCC1)(N1CC1)N1CC1`: the T/C by setting is: (dose: 0.74 mg/kg/injection, schedule: Q01DX009 (ip), vehicle: saline) 89 % of control; (dose: 1.11 mg/kg/injection, schedule: Q01DX009 (ip), vehicle: saline) 98 % of control; (dose: 1.67 mg/kg/injection, schedule: Q01DX009 (ip), vehicle: saline) 121 % of control; (dose: 2.2 mg/kg/injection, schedule: Q01DX009 (ip), vehicle: saline) 205 % of control; (dose: 2.2 mg/kg/injection, schedule: Q04DX003 (ip), vehicle: saline) 113 % of control; (dose: 2.5 mg/kg/injection, schedule: Q01DX009 (ip), vehicle: saline) 180 % of control. For the same molecule, the T/C reads like this: (dose: 3.3 mg/kg/injection, schedule: Q01DX009 (ip), vehicle: saline) 255 % of control; (dose: 5.0 mg/kg/injection, schedule: Q01DX009 (ip), vehicle: saline) 268 % of control and 317 % of control; (dose: 5.56 mg/kg/injection, schedule: Q04DX003 (ip), vehicle: saline) 150 % of control; (dose: 7.5 mg/kg/injection, schedule: Q01DX009 (ip), vehicle: saline) 112 % of control; (dose: 7.5 mg/kg/injection, schedule: Q04DX003 (ip), vehicle: saline) 182 % of control; (dose: 8.33 mg/kg/injection, schedule: Q04DX003 (ip), vehicle: saline) 204 % of control. Also, the T/C by setting is: under setting [4], 240 % of control and 250 % of control; (dose: 18.7 mg/kg/injection, schedule: Q04DX003 (ip), vehicle: saline) 272 % of control.
As for `CC(=O)OC(C)C1C2=C(C(=O)CC1(C)O)C(=O)c1c(ccc(-c3ccc4c(c3O)C(=O)C3=C(C4=O)C(C(C)OC(C)=O)C(C)(O)CC3=O)c1O)C2=O` (centres undefined), for the setting “dose: 6.25 mg/kg/injection, schedule: Q01DX009 (ip), vehicle: saline with Tween-80”, the T/C is 122 % of control.
`O=C(NNC1CCCCC1)c1ccccc1`: the T/C under setting [8] is 95 % of control.
For the molecule `CC12CCCCC1C/C(=N/NC(N)=O)CC2` (centres undefined), the T/C by setting is: (dose: 5.0 mg/kg/injection, schedule: Q01DX001 (ip), vehicle: saline) 100 % of control; (dose: 10.0 mg/kg/injection, schedule: Q01DX001 (ip), vehicle: saline) 100 % of control; (dose: 20.0 mg/kg/injection, schedule: Q01DX001 (ip), vehicle: saline) 100 % of control; (dose: 40.0 mg/kg/injection, schedule: Q01DX001 (ip), vehicle: saline) 104 % of control.
For the molecule `c1ccc(Sc2c(Sc3ccccc3)c(Sc3ccccc3)c(Sc3ccccc3)c(Sc3ccccc3)c2Sc2ccccc2)cc1`, the T/C reads like this: under setting [1], 99 % of control; under setting [2], 101 % of control; under setting [3], 90 % of control.
Turning to `S=C1SC2(CCCCCC2)NC2=C1CCCCC2`, the T/C by setting is: (dose: 100.0 mg/kg/injection, schedule: Q01DX009 (ip), vehicle: Klucel (hydroxypropylcellulose) (HPC)) 106 % of control; (dose: 200.0 mg/kg/injection, schedule: Q01DX009 (ip), vehicle: Klucel (hydroxypropylcellulose) (HPC)) 103 % of control; (dose: 400.0 mg/kg/injection, schedule: Q01DX009 (ip), vehicle: Klucel (hydroxypropylcellulose) (HPC)) 105 % of control.
As for `Cn1nc(-c2ccccc2)nc1[N+](=O)[O-]`, the T/C is, setting by setting: (dose: 12.5 mg/kg/injection, schedule: Q01DX009 (ip), vehicle: saline with Tween-80) 114 % of control; under setting [8], 97 % of control; (dose: 50.0 mg/kg/injection, schedule: Q01DX009 (ip), vehicle: saline with Tween-80) 93 % of control; under setting [5], 99 % of control.
Take `CCCCCCCCCCCCCCCCCC(N)=O`: the T/C reads like this: under setting [9], 90 % of control; (dose: 200.0 mg/kg/injection, schedule: Q04DX003 (ip), vehicle: Klucel (hydroxypropylcellulose) (HPC)) 95 % of control; under setting [10], 100 % of control.
For `CCOC(=O)COc1ccc(C=O)cc1`, the T/C under setting [9] is 103 % of control and the T/C under setting [10] was 92 % of control.
